Measurements published in PubChem BioAssay AID1190 (EPA DSSTox, 2008).
The source made the active and inactive calls. The rule behind the calls is not given here.

The molecules below were run on dog and primate chronic carcinogenicity bioassays, TD50 (assay: DSSTox (CPDBAS) Carcinogenic Potency Database Summary Dog & Primates Bioassay Results).
Description: The Carcinogenic Potency Database (CPDB) is a unique and widely used international resource of the results of over 6500 chronic, long-term animal cancer tests on over 1500 chemical substances. The CPDB provides easy access to the bioassay literature, with qualitative and quantitative analyses of both positive and negative experiments that have been published over the past 50 years in the general literature and by the National Cancer Institute/National Toxicology Program. The CPDB standardizes the diverse literature of cancer bioassays that vary widely in protocol, histopathological examination and nomenclature, and in the published author's choices of what information to provide in their papers. Results are reported in the CPDB for tests in rats, mice, hamsters, dogs, and nonhuman primates, and are based on the most positive result among all experiments for each sex-species. The DSSTox CPDBAS (all species) file incorporates data from the CPDB Summary Tables for the full list of over 1500 chemical substances tested in at least one species. Summary bioassay results for Dogs and Non-Human Primates (TD50, tumor sites) are provided in the CPDB Summary Tables and the DSSTox CPDBAS file for more than 30 chemical substances.
TD50 is a standardized quantitative measure of carcinogenic potency (analogous to an LD50) and is reported in the CPDB Summary Table for each species. Comments pertaining to the Dog or Primates (Cynomolgus, Rhesus, Bush Baby, Tree Shrew) TD50 (corresponding to footnote indices in the original CPDB Summary Table) are provided in the TD50_Dog_Primates_Note field. […] Target sites are reported for each species with a positive result in the CPDB on the basis of a positive author's opinion for the particular site and using all results from both the general literature and NCI/NTP bioassays. If a chemical has two or more target sites listed, the results may be from different experiments, and a single site may be a target organ in more than one experiment, as well. Blank entry in TargetSites field indicates no results reported.
For `C#C[C@]1(OC(C)=O)CC[C@H]2[C@@H]3CCC4=CC(=O)CC[C@@H]4[C@H]3CC[C@@]21C`, the outcome was “inactive; no positive results”. For `O=P1(N(CCCl)CCCl)NCCCO1` (stereo unspecified), the outcome was “inactive; no positive results”. With `Cc1ccc2cc3c(ccc4ccccc43)c3c2c1CC3` the outcome was “inactive; no positive results”. For `Cc1cccc(N=Nc2ccc(N(C)C)cc2)c1`, the outcome was “inactive; no positive results”. With `CN(C)c1ccc(N=Nc2ccccc2)cc1` the outcome was “inactive; no positive results”. With `ClC(Cl)Cl` the outcome was “inactive”. In the case of `Cn1c(N)nc2c3cccnc3ccc21`, the outcome is reported as “active”. With `O=[As](O)(O)O` the outcome was “inactive”. For `Nc1ccc(Cc2ccc(N)c(Cl)c2)cc1Cl`, the outcome was “active”. With `CC(=O)Nc1ccc2c(c1)Cc1ccccc1-2` the outcome was “inactive; no positive results”. With `O=S(=O)(O)NC1CCCCC1` the outcome was “inactive; no positive results”. With `O=C1NS(=O)(=O)c2ccccc21` the outcome was “inactive; no positive results”. For `CN(C)N=O`, the outcome was “inactive; no positive results”. `CNNCc1ccc(C(=O)NC(C)C)cc1` showed a Potency of 4.21 mg/kg/day. `COc1cc2c(c3oc(=O)c4c(c13)CCC4=O)C1C=COC1O2` (stereo unspecified) gave a Potency of 0.0082 mg/kg/day. `CCCN(CCC)N=O` showed a Potency of 0.0121 mg/kg/day. Molecule `CCOC(N)=O` has a Potency of 65.2 mg/kg/day. `CC(=O)Nc1ccc2c(c1)Cc1cc(NC(C)=O)ccc1-2` was tested, and the outcome was “inactive; no positive results”. In the case of `Cc1cc(C)c(S(=O)(=O)O)cc1N=Nc1cc(S(=O)(=O)O)c2ccccc2c1O`, the outcome is reported as “inactive”. In the case of `Clc1ccc(C(c2ccc(Cl)cc2)C(Cl)(Cl)Cl)cc1`, the outcome is reported as “inactive; no positive results”. In the case of `N[C@@H](Cc1ccc(N(CCCl)CCCl)cc1)C(=O)O`, the outcome is reported as “active; no positive results”. In the case of `O=NN1CCCCC1`, the Potency is reported as 2.76 mg/kg/day. In the case of `COc1cc2c(c3oc4cccc(O)c4c(=O)c13)C1C=COC1O2` (stereo unspecified), the outcome is reported as “active”. `C/[N+]([O-])=N/CO[C@@H]1O[C@H](CO)[C@@H](O)[C@H](O)[C@H]1O` showed a Potency of 0.0657 mg/kg/day. With `COc1cccc2c1C(=O)c1c(O)c3c(c(O)c1C2=O)C[C@@](O)(C(=O)CO)C[C@@H]3O[C@H]1C[C@H](N)[C@H](O)[C@H](C)O1` the outcome was “inactive; no positive results”. With `C#C[C@@]1(O)CC[C@H]2[C@@H]3CCC4=CCCC[C@@H]4[C@H]3CC[C@@]21C` the outcome was “active”. In the case of `Nc1ccc2ccccc2c1`, the Potency is reported as 5.74 mg/kg/day. With `CN(N=O)C(N)=O` the Potency was 7.18 mg/kg/day. In the case of `Nc1ccc(-c2ccc(N)c(Cl)c2)cc1Cl`, the outcome is reported as “active”. With `Cn1cnc([N+](=O)[O-])c1Sc1ncnc2nc[nH]c12` the outcome was “inactive; no positive results”. Work on `CCN(CC)N=O` yielded a Potency of 0.0536 mg/kg/day.
